Measurements from patent US8053578B2, “Alpha-fluoroalkyl dihydrotetrabenazine imaging agents and probes” (General Electric Company, priority 2007, dated 2011).

Biological target: T1, VMAT-2 (Homo sapiens, UniProt Q05940)
T1 construct: Novascreen Biosciences Corporation (contract assay provider) protocol Cat. No. 100-0751
Assay: VMAT-2 binding affinity measurement (Novascreen protocol Cat. No. 100-0751)
Conditions: for Ki: Novascreen Biosciences protocol Cat. No. 100-0751; for VMAT-2 binding affinity, in words, relative to (+)-DTBZ control (Compound 18): summary of the Table 9 data
Protocol: In addition, the VMAT-2 binding affinity of a fluoroalkyl tetrabinazine carbinol compound 38 bearing an acetoxy group at ring position-2 was also measured. VMAT-2 binding affinity measurements were carried out by Novascreen Biosciences Corporation (Hanover, Md., USA) using protocol Cat. No. 100-0751. Novascreen, Inc. is a commercial provider of biological assays for the pharmaceutical industry.

T1 sequence (Q05940 whole entry, species assumed): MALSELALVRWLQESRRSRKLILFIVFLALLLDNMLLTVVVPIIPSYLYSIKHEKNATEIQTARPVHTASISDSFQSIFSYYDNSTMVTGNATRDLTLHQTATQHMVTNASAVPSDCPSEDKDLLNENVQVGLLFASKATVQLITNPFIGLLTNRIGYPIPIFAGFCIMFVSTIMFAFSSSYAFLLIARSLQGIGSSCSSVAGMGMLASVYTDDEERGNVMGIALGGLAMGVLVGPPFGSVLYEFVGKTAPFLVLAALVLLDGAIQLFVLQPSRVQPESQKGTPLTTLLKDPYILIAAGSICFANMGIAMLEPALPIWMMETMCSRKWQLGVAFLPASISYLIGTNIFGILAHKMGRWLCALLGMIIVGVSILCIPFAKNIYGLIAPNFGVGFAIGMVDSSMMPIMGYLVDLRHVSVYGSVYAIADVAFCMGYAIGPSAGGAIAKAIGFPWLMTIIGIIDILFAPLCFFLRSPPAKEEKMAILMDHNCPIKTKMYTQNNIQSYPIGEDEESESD

Compound | Ki [nM] | VMAT-2 binding affinity, in words, relative to (+)-DTBZ control (Compound 18)
COc1cc2c(cc1OC)[C@H]1C[C@H](O)[C@H](CC(C)(C)CC[19F])CN1CC2 [Compound 2-epi-32] | 2.6 | very high binding affinity
COc1cc2c(cc1OC)[C@H]1C[C@@](C#CCF)(OC(C)=O)[C@H](CC(C)C)CN1CC2 [Compound 38] | – | somewhat lower yet still robust binding activity
COc1cc2c(cc1OC)[C@H]1C[C@](O)(C#CCF)[C@H](CC(C)C)CN1CC2 [Compound 39] | – | somewhat lower yet still robust binding activity

Results, then the compound that gave them:

Ki [nM] | VMAT-2 binding affinity, in words, relative to (+)-DTBZ control (Compound 18) | Compound
6.4 | very high binding affinity | COc1cc2c(cc1OC)[C@H]1C[C@@H](O)[C@H](CCCC[19F])CN1CC2 [Compound 31]
0.45 | very high binding affinity | COc1cc2c(cc1OC)[C@H]1C[C@@H](O)[C@H](CC(C)(C)CC[19F])CN1CC2 [Compound 32]
